Common to all, as to assay: MIC in agar
What all share (type): cell-based

The subject of experiment [1] is Staphylococcus aureus 1517. Particulars: in agar; Staphylococcus aureus 1517; read-out: M.I.C. From the text:
(§1) a. Antibacterial effectiveness of compounds of
(§2) Examples 6 and 7 in agar.
(§3) (μg/ml) in agar of compound

In a further experiment the test system is Enterobacter cloacae N1. Particulars: in agar; Enterobacter cloacae N1; read-out: M.I.C.
Text: as §1, §2, §3

The subject of experiment [2] is Staphylococcus aureus Oxford. Particulars: in agar; Staphylococcus aureus Oxford; read-out: M.I.C.
Text: as §1, §2, §3

For a further experiment, the system named is Serratia marcescens US20. To be noted: in agar; Serratia marcescens US20; read-out: M.I.C.
Text: as §1, §2, §3

In another experiment the test system is Proteus rettgeri WM16. To be noted: Providencia rettgeri; in agar; Proteus rettgeri WM16; read-out: M.I.C.
Text: as §1, §2, §3

A further experiment deals with Proteus mirabilis C977. Particulars: in agar; Proteus mirabilis C977; read-out: M.I.C.
Text: as §1, §2, §3

The next experiment has as its system Bacillus subtilis A. To be noted: in agar; Bacillus subtilis A; read-out: M.I.C.
Text: as §1, §2, §3

In the next experiment the test system is Klebsiella aerogenes A. Particulars: in agar; Klebsiella aerogenes A; read-out: M.I.C.
Text: as §1, §2, §3

The test system of another experiment is Shigella sonnei MB 11967. Particulars: MB11967.
Text: as §1, §2, §3

The next experiment relates to Escherichia coli 0111.
Text: as §1, §2, §3

Experiment [3] concerns Salmonella typhimurium CT10. To be noted: Salmonella enterica; in agar; Salmonella typhimurium CT10; read-out: M.I.C.
Text: as §1, §2, §3

The subject of experiment [4] is Streptococcus pyogenes CN10. To be noted: in agar; Streptococcus pyogenes CN10; read-out: M.I.C.
Text: as §1, §2, §3

The subject of the next experiment is Citrobacter freundii E8. To be noted: in agar; Citrobacter freundii E8; read-out: M.I.C.
Text: as §1, §2, §3

For a further experiment, the system named is Pseudomonas aeruginosa A. Particulars: in agar; Pseudomonas aeruginosa A; read-out: M.I.C.
Text: as §1, §2, §3

In the next experiment the test system is Proteus vulgaris W091. Particulars: in agar; Proteus vulgaris W091; read-out: M.I.C.
Text: as §1, §2, §3

Experiment [5] concerns Streptococcus pneumoniae CN33.
Text: as §1, §2, §3

The subject of another experiment is Escherichia coli JT39. Particulars: Escherichia coli, JT39.
Text: as §1, §2, §3

A further experiment deals with Streptococcus faecalis I. Particulars: Enterococcus faecalis; in agar; Streptococcus faecalis I; read-out: M.I.C.
Text: as §1, §2, §3

Another experiment relates to E. coli ESS. To be noted: Escherichia coli. The text has this: | (μg/ml) in agar of compound

≈ marks a conversion by molar mass, not a printed value. Some results are limits rather than exact numbers.

Take `C[C@H](O)[C@@H]1C(=O)N2C(C(=O)O)=C(S/C=C\C(=O)OCCN)C[C@H]12` [Example 20, (5R,6R)-3-[2-(Z)-(2-Aminoethoxycarbonyl)ethenylthio]-6-[(S)-1-hydroxyethyl]-7-oxo-1-azabicyclo[3.2.0]hept-2-ene-2-carboxylic acid]: the MIC in [1] is 0.2 µg/mL (≈ 0.584 µM); in the experiment with Enterobacter cloacae N1, 0.2 µg/mL (≈ 0.584 µM); in [2], at most 0.1 µg/mL; in the experiment with Serratia marcescens US20 it was at most 0.1 µg/mL; in the experiment with Proteus rettgeri WM16, 0.2 µg/mL (≈ 0.584 µM); with Proteus mirabilis C977, 0.4 µg/mL (≈ 1.17 µM). Further, the MIC was at most 0.1 µg/mL in the experiment on Bacillus subtilis A; at most 0.1 µg/mL in the experiment with Klebsiella aerogenes A; 0.2 µg/mL (≈ 0.584 µM) in the experiment with Shigella sonnei MB 11967; at most 0.1 µg/mL with Escherichia coli 0111; at most 0.1 µg/mL in [3]; at most 0.1 µg/mL in [4]. In addition, the MIC with Citrobacter freundii E8 was 0.2 µg/mL (≈ 0.584 µM); in the experiment with Pseudomonas aeruginosa A, 25 µg/mL (≈ 73 µM); in the experiment with Proteus vulgaris W091, 0.4 µg/mL (≈ 1.17 µM); in experiment [5], at most 0.1 µg/mL; against Escherichia coli JT39, 0.2 µg/mL (≈ 0.584 µM); with Streptococcus faecalis I, at most 0.1 µg/mL. This compound also yielded an MIC in the experiment on E. coli ESS of at most 0.1 µg/mL.
